In US12187742B2 (XRAD Therapeutics, Inc., priority 2018, dated 2025) one finds IC50 data, which are given here for 23 compounds.

The assay has as its target ATM (Homo sapiens (Human), UniProt Q13315). As to the kind of experiment: ATM in Cell Western Assay (pKAP1 in etoposide-treated MCF-7 cells). In kind it is cell-based. The procedure, abridged:
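Cells received compounds in a 10-dose, 3-fold series from a 1 μM final top concentration, then 100 μM etoposide, for 1 hr at 37° C. They were then fixed with paraformaldehyde and permeabilized with 0.1% Triton X-100. After immunostaining, plates were scanned on an infrared imager.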

Where [1] appears, read: pKAP1 in etoposide-treated MCF-7 cells.
Where [2] appears, read: MCF-7 cells, etoposide 100 μM, 1 hr, pKAP1 readout.

Each structure is given as a SMILES string. Structures can show the parent of a compound that is named as a salt.

Sequence of ATM (Q13315 whole entry): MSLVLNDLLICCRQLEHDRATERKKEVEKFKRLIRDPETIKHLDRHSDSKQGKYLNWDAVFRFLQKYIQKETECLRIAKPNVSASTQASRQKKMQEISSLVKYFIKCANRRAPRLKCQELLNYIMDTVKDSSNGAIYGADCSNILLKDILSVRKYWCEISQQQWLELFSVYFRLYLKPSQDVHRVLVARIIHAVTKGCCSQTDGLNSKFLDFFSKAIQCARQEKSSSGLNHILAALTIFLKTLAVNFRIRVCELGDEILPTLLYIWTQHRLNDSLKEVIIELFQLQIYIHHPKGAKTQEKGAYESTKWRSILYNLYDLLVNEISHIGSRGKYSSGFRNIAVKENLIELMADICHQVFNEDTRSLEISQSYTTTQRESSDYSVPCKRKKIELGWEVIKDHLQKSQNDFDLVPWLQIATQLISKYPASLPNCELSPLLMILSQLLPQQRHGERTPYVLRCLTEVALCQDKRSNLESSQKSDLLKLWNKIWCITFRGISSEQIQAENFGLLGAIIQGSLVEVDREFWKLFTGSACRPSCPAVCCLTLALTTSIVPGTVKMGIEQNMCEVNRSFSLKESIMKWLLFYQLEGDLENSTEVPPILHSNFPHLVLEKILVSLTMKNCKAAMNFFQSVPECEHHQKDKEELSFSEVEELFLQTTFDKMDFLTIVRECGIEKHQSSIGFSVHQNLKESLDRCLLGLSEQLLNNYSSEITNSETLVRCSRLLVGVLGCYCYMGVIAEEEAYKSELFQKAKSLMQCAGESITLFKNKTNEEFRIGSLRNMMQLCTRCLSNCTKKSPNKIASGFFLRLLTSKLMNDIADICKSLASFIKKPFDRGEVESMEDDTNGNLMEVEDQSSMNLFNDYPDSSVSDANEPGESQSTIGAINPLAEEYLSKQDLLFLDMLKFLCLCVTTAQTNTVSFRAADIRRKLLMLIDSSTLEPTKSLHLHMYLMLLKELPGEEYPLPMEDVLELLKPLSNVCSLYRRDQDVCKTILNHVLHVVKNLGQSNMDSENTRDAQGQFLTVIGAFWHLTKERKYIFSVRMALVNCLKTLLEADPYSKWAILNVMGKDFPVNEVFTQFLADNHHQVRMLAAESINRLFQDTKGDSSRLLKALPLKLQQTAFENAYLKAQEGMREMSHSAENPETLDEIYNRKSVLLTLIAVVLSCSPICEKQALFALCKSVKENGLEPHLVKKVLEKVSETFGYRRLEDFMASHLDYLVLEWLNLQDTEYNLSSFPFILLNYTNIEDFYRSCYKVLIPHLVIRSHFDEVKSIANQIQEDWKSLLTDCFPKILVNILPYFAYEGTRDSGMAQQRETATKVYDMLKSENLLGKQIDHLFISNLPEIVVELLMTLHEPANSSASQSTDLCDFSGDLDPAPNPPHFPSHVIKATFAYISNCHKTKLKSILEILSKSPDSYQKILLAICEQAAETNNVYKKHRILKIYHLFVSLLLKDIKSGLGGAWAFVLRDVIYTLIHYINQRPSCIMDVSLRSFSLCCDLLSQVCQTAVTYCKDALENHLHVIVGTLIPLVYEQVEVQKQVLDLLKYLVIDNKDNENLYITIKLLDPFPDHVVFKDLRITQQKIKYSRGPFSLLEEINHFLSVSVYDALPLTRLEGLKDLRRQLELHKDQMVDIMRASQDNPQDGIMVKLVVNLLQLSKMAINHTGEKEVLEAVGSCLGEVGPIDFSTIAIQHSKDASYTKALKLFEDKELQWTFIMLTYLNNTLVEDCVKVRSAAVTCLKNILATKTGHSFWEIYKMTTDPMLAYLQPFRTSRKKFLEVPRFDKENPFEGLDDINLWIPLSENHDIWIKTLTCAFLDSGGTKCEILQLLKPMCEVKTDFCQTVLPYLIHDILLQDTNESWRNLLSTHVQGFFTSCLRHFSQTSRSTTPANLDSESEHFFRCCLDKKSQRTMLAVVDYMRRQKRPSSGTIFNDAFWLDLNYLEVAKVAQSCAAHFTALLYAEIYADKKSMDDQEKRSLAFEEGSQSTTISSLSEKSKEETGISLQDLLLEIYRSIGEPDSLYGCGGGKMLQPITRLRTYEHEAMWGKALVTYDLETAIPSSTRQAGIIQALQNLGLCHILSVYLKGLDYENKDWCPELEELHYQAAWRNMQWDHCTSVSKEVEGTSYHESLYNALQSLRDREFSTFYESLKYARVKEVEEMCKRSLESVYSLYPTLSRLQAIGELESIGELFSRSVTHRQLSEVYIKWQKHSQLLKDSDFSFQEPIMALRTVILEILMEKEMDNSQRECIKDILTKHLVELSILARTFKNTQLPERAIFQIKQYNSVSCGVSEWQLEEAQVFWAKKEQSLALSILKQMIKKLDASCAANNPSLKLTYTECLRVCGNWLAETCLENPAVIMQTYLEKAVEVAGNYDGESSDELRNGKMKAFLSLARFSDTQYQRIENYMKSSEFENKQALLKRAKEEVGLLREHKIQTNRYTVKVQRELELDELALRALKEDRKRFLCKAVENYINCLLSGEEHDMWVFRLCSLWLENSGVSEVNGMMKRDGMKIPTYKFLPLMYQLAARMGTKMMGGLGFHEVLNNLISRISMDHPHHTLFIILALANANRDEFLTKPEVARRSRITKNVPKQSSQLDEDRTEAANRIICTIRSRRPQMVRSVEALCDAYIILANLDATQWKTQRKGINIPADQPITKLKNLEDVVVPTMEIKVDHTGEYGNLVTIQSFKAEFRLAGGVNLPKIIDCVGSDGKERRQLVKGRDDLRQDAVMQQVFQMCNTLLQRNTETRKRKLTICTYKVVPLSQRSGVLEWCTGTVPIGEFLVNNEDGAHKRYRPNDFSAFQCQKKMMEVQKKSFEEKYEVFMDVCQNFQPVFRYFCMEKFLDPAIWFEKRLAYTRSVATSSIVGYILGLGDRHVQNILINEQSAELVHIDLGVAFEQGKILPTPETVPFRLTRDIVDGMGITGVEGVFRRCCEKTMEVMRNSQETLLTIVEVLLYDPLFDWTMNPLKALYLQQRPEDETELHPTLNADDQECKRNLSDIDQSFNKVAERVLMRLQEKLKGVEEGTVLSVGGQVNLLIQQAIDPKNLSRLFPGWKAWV

Broadly, the IC50 is the concentration at which inhibition is half-maximal. Low readings indicate greater potency, high ones weaker potency. As for `CNC[C@H]1C[C@]2(C1)C(=O)N(C)c1cnc3cc(F)c(-c4cnc(OCCNC(C)C)c(NS(C)(=O)=O)c4)cc3c12` [Example 454, cis-N-(5-(7′-Fluoro-3′-methyl-3-((methylamino)methyl)-2′-oxo-2′,3′-dihydrospiro[cyclobutane-1,1′-pyrrolo[2,3-c]quinolin]-8′-yl)-2-(2-(isopropylamino)ethoxy)pyridin-3-yl)methanesulfonamide], under setting [1], the IC50 is > 100 nM.
Same read-out and setting: the figure for `CC(C)NCCOc1ncc(-c2cc3c(cc2F)ncc2c3[C@]3(C[C@@H](c4cccc(=O)[nH]4)C3)C(=O)N2C)cc1NS(C)(=O)=O` [Example 441, trans-N-(5-(7′-Fluoro-3′-methyl-2′-oxo-3-(6-oxo-1,6-dihydropyridin-2-yl)-2′,3′-dihydrospiro[cyclobutane-1,1′-pyrrolo[2,3-c]quinolin]-8′-yl)-2-(2-(isopropylamino)ethoxy)pyridin-3-yl)methanesulfonamide] is > 100 nM.
As to `CN(C)CC1CN(c2ncc(-c3ccc4ncc5c(c4c3)C3(CC3)C(=O)N5C)cc2NS(=O)(=O)C2CC2)C1` [Example 122, N-(2-(3-((Dimethylamino)methyl)azetidin-1-yl)-5-(3′-methyl-2′-oxo-2′,3′-dihydrospiro[cyclopropane-1,1′-pyrrolo[2,3-c]quinolin]-8′-yl)pyridin-3-yl)cyclopropanesulfonamide], the IC50 under setting [2] lay within 1 to 100 nM.
The same measure, in the same setting: the figure for `CN(C)CCCOc1ncc(-c2ccc3ncc4c(c3c2)C2(CCC2)C(=O)N4C)cc1NS(=O)(=O)CS(C)(=O)=O` [Example 274, N-(2-(3-(Dimethylamino)propoxy)-5-(3′-methyl-2′-oxo-2′,3′-dihydrospiro[cyclobutane-1,1′-pyrrolo[2,3-c]quinolin]-8′-yl)pyridin-3-yl)-1-(methylsulfonyl)methanesulfonamide] is 1 to 100 nM.
Compound `CC(C)NCCOc1ncc(-c2cc3c(cc2F)ncc2c3[C@]3(C[C@@H](COC(C)C)C3)C(=O)N2C)cc1NS(=O)(=O)C(C)C` [Example 413, trans-N-{5-(7′-Fluoro-3-(isopropoxymethyl)-3′-methyl-2′-oxo-2′,3′-dihydrospiro[cyclobutane-1,1′-pyrrolo[2,3-c]quinolin]-8′-yl)-2-(2-(isopropylamino)ethoxy)pyridin-3-yl)propane-2-sulfonamide] returned an IC50 under setting [1] of 1 to 100 nM.
In turn, `CN(C)CCCOc1ncc(-c2ccc3ncc4c(c3c2)C2(CCC2)C(=O)N4C)cc1NS(=O)(=O)N(C)C1CCNCC1` [Example 179, N-Methyl-N-(piperidin-4-yl)({2-[3-(dimethylamino)propoxy]-5-{3′-methyl-2′-oxo-2′,3′-dihydrospiro[cyclobutane-1,1′-pyrrolo[2,3-c]quinoline]-8-yl}pyridin-3-yl}amino)sulfonamide 2,2,2-trifluoroacetate] came in with an IC50 under setting [2] of 1 to 100 nM.
With `CNS(=O)(=O)Nc1cc(-c2cc3c4c(cnc3cc2F)N(C)C(=O)C42CCC2)cnc1N1CC(N(C)C)C1` [Example 340, 8′-{6-[3-(Dimethylamino)azetidin-1-yl]-5-[(methylsulfamoyl)amino]pyridin-3-yl}-7′-fluoro-3′-methyl-2′,3′-dihydrospiro[cyclobutane-1,1′-pyrrolo[2,3-c]quinoline]-2′-one], under setting [1], the IC50 is 1 to 100 nM.
Regarding `CC(C)NCCOc1ncc(-c2cc3c(cc2F)ncc2c3[C@]3(C[C@H](n4ccccc4=O)C3)C(=O)N2C)cc1NS(C)(=O)=O` [Example 475, cis-N-(5-(7′-Fluoro-3′-methyl-2′-oxo-3-(2-oxopyridin-1(2H)-yl)-2′,3′-dihydrospiro[cyclobutane-1,1′-pyrrolo[2,3-c]quinolin]-8′-yl)-2-(2-(isopropylamino)ethoxy)pyridin-3-yl)methanesulfonamide], under setting [1], the IC50 is > 100 nM.
On to `COc1ncc(-c2ccc3ncc4c(c3c2)C2(CC2)C(=O)N4C)cc1CS(=O)(=O)c1ccc(C)nc1` [Example 209, 8′-(6-Methoxy-5-(((6-methylpyridin-3-yl)sulfonyl)methyl)pyridin-3-yl)-3′-methylspiro[cyclopropane-1,1′-pyrrolo[2,3-c]quinolin]-2′(3′-H)-one], for which the IC50 under setting [2] was > 100 nM.
Consider `CN1C(=O)C2(CCC2)c2c1cnc1ccc(-c3cnc(OCCCN4CCCC(F)(F)C4)c(NS(C)(=O)=O)c3)cc21` [Example 298, N-(2-(3-(3,3-Difluoropiperidin-1-yl)propoxy)-5-(3′-methyl-2′-oxo-2′,3′-dihydrospiro[cyclobutane-1,1′-pyrrolo[2,3-c]quinolin]-8′-yl)pyridin-3-yl)methanesulfonamide], for which the IC50 under setting [2] was > 100 nM.
For the compound `CN(C)CCCOc1c(NS(C)(=O)=O)cc(-c2ccc3ncc4c(c3c2)C2(CCC2)C(=O)N4C)cc1C(=O)O` [Example 399, 2-(3-(Dimethylamino)propoxy)-5-(3′-methyl-2′-oxo-2′,3′-dihydrospiro[cyclobutane-1,1′-pyrrolo[2,3-c]quinolin]-8′-yl)-3-(methylsulfonamido)benzoic acid], under setting [1], the IC50 was > 100 nM.
Take `[2H]C([2H])(COc1ncc(-c2ccc3ncc4c(c3c2)C2(CCC2)C(=O)N4C)cc1NS(=O)(=O)c1ccc(C)nc1)CN1CCCCC1` [Example 219, 6-Methyl-N-(5-(3′-methyl-2′-oxo-2′,3′-dihydrospiro[cyclobulane-1,1′-pyrrolo[2,3-c]quinolin]-8′-yl)-2-(3-(piperidin-1-yl)propoxy-2,2-d2)pyridin-3-yl)pyridine-3-sulfonamide]: the IC50 under setting [2] is > 100 nM.
Regarding `CC(C)NCCOc1ncc(-c2cc3c4c(cnc3cc2F)N(C)C(=O)C42CC3(CCNCC3)C2)cc1NS(C)(=O)=O` [Example 458, N-(5-(7′--Fluoro-3″-methyl-2″-oxo-2″,3″-dihydrodispiro [piperidine-4,1′-cyclobutane-31″-pyrrolo[2,3-c]quinolin]-8″-yl)-2-(2-(isopropylamino)ethoxy)pyridin-3-yl) methanesulfonamide], under setting [1], the IC50 was > 100 nM.
On the same count and under the same terms, the figure for `CC(C)NCCOc1ncc(-c2cc3c4c(cnc3cc2F)N(C)C(=O)C42CN(Cc3ccccc3)C2)cc1NS(C)(=O)=O` [Example 495, N-(5-(1-Benzyl-7-fluoro-3′-methyl-2′-oxo-2′,3′-dihydrospiro[azetidine-3,1′-pyrrolo[2,3-c]quinolin]-8′-yl)-2-(2-(isopropylamino)ethoxy)pyridin-3-yl)methanesulfonamide] is 1 to 100 nM.
Turning to `COC[C@H]1C[C@@]2(C1)C(=O)N(C)c1cnc3cc(F)c(-c4cnc(OCCNC(C)C)c(NS(C)(=O)=O)c4)cc3c12` [Example 405, trans-N-(5-(7′-Fluoro-3-(methoxymethyl)-3′-methyl-2′-oxo-2′,3′-dihydrospiro[cyclobutane-1,1′-pyrrolo[2,3-c]quinolin]-8′-yl)-2-(2-(isopropylamino)ethoxy)pyridin-3-yl)methanesulfonamide], the IC50 under setting [1] is 1 to 100 nM.
For the compound `CN1C(=O)C2(CCC2)c2c1cnc1ccc(-c3cnc(OCC4CNC4)c(NS(C)(=O)=O)c3)cc21` [Example 310, N-(2-(Azetidin-3-ylmethoxy)-5-(3′-methyl-2′-oxo-2′,3′-dihydrospiro[cyclobutane-1,1′-pyrrole[2,3-c]quinolin]-8′-yl)pyridin-3-yl) methanesulfonamide hydrochloride], the IC50 under setting [2] was > 100 nM.
Consider `CN(C)CCCOc1c(NS(C)(=O)=O)cc(-c2ccc3ncc4c(c3c2)C2(CCC2)C(=O)N4C)cc1C(=O)N(C)C` [Example 564, 2-(3-(Dimethylamino)propoxy)-N,N-dimethyl-5-(3′-methyl-2′-oxo-2′,3′-dihydrospiro[cyclobutane-1,1′-pyrrolo[2,3-c]quinolin]-8′-yl)-3-(methylsulfonamido)benzamide], for which the IC50 under setting [1] is > 100 nM.
As for `CN1C(=O)C2(CC2)c2c1cnc1ccc(-c3cnc4ccccc4c3)cc21` [Example 20, 3′-Methyl-8′-(quinolin-3-yl)spiro[cyclopropane-1,1′-pyrrolo[2,3-c]quinolin]-2′(3′-H)-one], the IC50 under setting [2] was > 100 nM.
Compound `CC(C)NCCOc1ncc(-c2cc3c(cc2F)ncc2c3[C@]3(C[C@@H](C(C)(C)O)C3)C(=O)N2C)cc1NS(C)(=O)=O` [Example 457, trans-N-(5-(7′-Fluoro-3-(2-bydroxypropan-2-yl)-3′-methyl-2′-oxo-2′,3′-dihydrospiro[cyclobutane-1,1′-pyrrolo[2,3-c]quinolin]-8′-yl)-2-(2-(isopropylamino)ethoxy)pyridin-3-yl)methanesulfonamide] gave an IC50 under setting [1] of 1 to 100 nM.
Compound `CN(C)CCCOc1ncc(-c2ccc3ncc4c(c3c2)C2(CCC2)C(=O)N4C)nc1NS(C)(=O)=O` [Example 263, N-(3-(3-(Dimethylamino)propoxy)-6-(3′-methyl-2′-oxo-2′,3′-dihydrospiro [cyclobutane-1,1′-pyrrolo[2,3-c]quinolin]-8′-yl)pyrazin-2-yl) methanesulfonamide] displayed an IC50 under setting [2] of 1 to 100 nM.
In the case of `CCCCN1CC2(C1)C(=O)N(C)c1cnc3cc(F)c(-c4cnc(OCCNC(C)C)c(NS(C)(=O)=O)c4)cc3c12` [Example 489, N-(5-(1-butyl-7′-fluoro-3′-methyl-2′-oxo-2′,3′-dihydrospiro[azetidine-3,1′-pyrrolo[2,3-c]quinolin]-8′-yl)-2-(2-(isopropylamino)ethoxy)pyridin-3-yl)methanesulfonamide], under setting [1], the IC50 lay within 1 to 100 nM.
The compound `COc1ccc(N2CC3(C2)C(=O)N(C)c2cnc4cc(F)c(-c5cnc(OCCNC(C)C)c(NS(C)(=O)=O)c5)cc4c23)cc1OC` [Example 546, N-(5-(1-(3,4-Dimethoxyphenyl)-7′-fluoro-3′-methyl-2′-oxo-2′,3′-dihydrospiro[azetidine-3,1′-pyrrolo[2,3-c]quinolin]-8′-yl)-2-(2-(isopropylamino)ethoxy)pyridin-3-yl)methanesulfonamide] displayed an IC50 under setting [1] of 1 to 100 nM.
Regarding `CN1C(=O)C2(CCC2)c2c1cnc1ccc(-c3cnc(OCC(CO)N(C)C)c(NS(C)(=O)=O)c3)cc21` (centres unmarked) [Example 296, N-(2-(2-(dimethylamino)-3-hydroxypropoxy)-5-(3′-methyl-2′-oxo-2′,3′-dihydrospiro[cyclobutane-1,1′-pyrrolo[2,3-c]quinolin]-8′-yl)pyridin-3-yl)methanesulfonamide], the IC50 under setting [2] was > 100 nM.
